The values that follow come from ChEMBL document CHEMBL1201862, “PubChem BioAssay data set” (2004).

Some test systems named below: SNB-75; LOX IMVI; T47D; SR; MDA-MB-231; M14; K562; OVCAR-4; SK-OV-3; 786-0; SF-295; SNB-19; MDA-MB-435; SW-620; HCT-15; TK-10; SK-MEL-2; KM12; Hs-578T; HOP-92.
Holding throughout (assay): DTP human tumour cell line panel, 48 h

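48-hour exposure; five concentrations; linearly interpolated endpoints. Abbreviation: GI50, concentration required for 50% inhibition of growth.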 Active and inactive are the calls of the source. Cut-off read from the data, not from the text of the source: active = GI50 up to about 1.1 µM and inactive = higher.

As usually defined, the GI50 is the concentration that inhibits growth by half. Turning to `CCC(C)C1=C(O)[N+]2([O-])Oc3ccc(-c4c(O)c(O)c(-c5ccc(O)cc5)c(OC(C)=O)c4OC(C)=O)cc3OC2(C(C)CC)C(=O)N1O` (stereo not drawn), the GI50 in the experiment with SNB-75 is > 50 µM (inactive); in the experiment with LOX IMVI, 17.6 µM (inactive); in the experiment with T47D, > 50 µM (inactive); in the experiment with SR, > 50 µM (inactive); with MDA-MB-231 it was > 50 µM (inactive); with M14, > 50 µM (inactive). Moreover, the GI50 in the experiment on K562 was 35.4 µM (inactive); in the experiment with OVCAR-4, > 50 µM (inactive); in the experiment on SK-OV-3 it was > 50 µM (inactive); in the experiment on 786-0 it was 13.7 µM (inactive); in the experiment on SF-295, > 50 µM (inactive); in the experiment with SNB-19, > 50 µM (inactive). The GI50 is 16.8 µM (inactive) in the experiment with MDA-MB-435; > 50 µM (inactive) in the experiment on SW-620; over 50 µM in the experiment with HCT-15; > 50 µM (inactive) in the experiment with TK-10; > 50 µM (inactive) in the experiment on SK-MEL-2; > 50 µM (inactive) in the experiment on KM12.
On to `COc1ccc2c(c1)C/C(=C\c1cccc3ccccc13)C2=O`, for which the GI50 in the experiment with Hs-578T was 84.9 µM (inactive); in the experiment with SNB-75, 12.4 µM (inactive); with LOX IMVI, 5.07 µM (inactive); with SR it was 4.65 µM (inactive); with M14, 5.97 µM (inactive); with K562, 2.36 µM (inactive). The GI50 is 67.9 µM (inactive) in the experiment with OVCAR-4; 16.8 µM (inactive) with SK-OV-3; 15.4 µM (inactive) in the experiment on 786-0; 69.2 µM (inactive) in the experiment with SNB-19; 3.98 µM (inactive) in the experiment on SW-620; 4.7 µM in the experiment with HCT-15. The GI50 was 6.07 µM (inactive) in the experiment with TK-10 and 5.41 µM (inactive) in the experiment with KM12.
Regarding `COc1ccc2nc(C(=O)c3ccccc3)c(C)cc2c1`, the GI50 was 2.96 µM (inactive) in the experiment with SNB-75; 7.13 µM (inactive) with HOP-92; 5.43 µM (inactive) in the experiment on LOX IMVI; 2.81 µM (inactive) in the experiment with SR; 3.74 µM (inactive) with M14; 0.859 µM (active) in the experiment on K562. Also, the GI50 with OVCAR-4 was 97.1 µM (inactive); in the experiment on SK-OV-3, 3.83 µM (inactive); in the experiment on 786-0 it was 7.03 µM (inactive); in the experiment with SF-295 it was 2.81 µM (inactive); in the experiment on SNB-19, 9.16 µM (inactive); with SW-620 it was 2.81 µM (inactive). The concentration for 50% growth inhibition (GI50) in the experiment on HCT-15 is 3.3 µM; with TK-10, 11.1 µM (inactive); in the experiment with SK-MEL-2, 6.27 µM (inactive); in the experiment on KM12, 6.58 µM (inactive).
For `Nc1c(C(=O)Nc2ccc([As](=O)(O)O)cc2)cnc2nnnn12`, the GI50 in the experiment with SNB-75, with HOP-92, in the experiment with LOX IMVI, in the experiment with T47D, in the experiment on SR and in the experiment on MDA-MB-231 was > 100 µM (inactive) in each case. Also, the GI50 in the experiment with M14, in the experiment on K562, in the experiment with OVCAR-4, in the experiment on SK-OV-3, with 786-0 and in the experiment on SF-295 was > 100 µM (inactive) throughout. Also, the GI50 in the experiment on SNB-19 is > 100 µM (inactive); with MDA-MB-435, > 100 µM (inactive); with SW-620, > 100 µM (inactive); in the experiment with HCT-15, over 100 µM; in the experiment with TK-10 it was > 100 µM (inactive); in the experiment on SK-MEL-2 it was > 100 µM (inactive). Moreover, the GI50 with KM12 was > 100 µM (inactive).
For the molecule `C=CCOCCCC(=O)C(=[N+]=[N-])C(=O)OC`, the GI50 in the experiment with SNB-75, in the experiment on HOP-92, in the experiment on LOX IMVI, in the experiment with SR, in the experiment with M14 and in the experiment with K562 was > 100 µM (inactive) in each case. Also, the GI50 in the experiment with OVCAR-4, in the experiment with SK-OV-3, in the experiment on 786-0, with SF-295, in the experiment on SNB-19 and with SW-620 was > 100 µM (inactive) throughout. Moreover, the concentration for 50% growth inhibition (GI50) was over 100 µM in the experiment on HCT-15, > 100 µM (inactive) in the experiment on TK-10, > 100 µM (inactive) with SK-MEL-2 and > 100 µM (inactive) in the experiment with KM12.
Consider `CCOc1ccccc1NC(=O)CC(C(=O)OC)C(=O)C(=O)OC` (stereo not drawn), for which the GI50 in the experiment with HOP-92, in the experiment on LOX IMVI, in the experiment on SR, in the experiment on M14, in the experiment on K562 and in the experiment on OVCAR-4 was > 100 µM (inactive) throughout. Besides, the GI50 with SK-OV-3 is > 100 µM (inactive); in the experiment on 786-0, > 100 µM (inactive); in the experiment with SF-295 it was > 100 µM (inactive); in the experiment on SNB-19, > 100 µM (inactive); in the experiment with SW-620, > 100 µM (inactive); in the experiment on HCT-15, over 100 µM. Further, the GI50 in the experiment with TK-10, in the experiment with SK-MEL-2 and in the experiment on KM12 was > 100 µM (inactive) throughout.
As to `Cc1cccc2c3ccc4c(c3n(C)c12)C(=O)C=CC4=O`, the GI50 with SNB-75 is > 100 µM (inactive); with HOP-92, > 100 µM (inactive); in the experiment on SR it was 29.3 µM (inactive); with M14, > 100 µM (inactive); in the experiment on K562, > 100 µM (inactive); in the experiment with OVCAR-4, > 100 µM (inactive). Moreover, the GI50 in the experiment with SK-OV-3, in the experiment with 786-0, in the experiment on SF-295, with SNB-19, with SW-620 and with TK-10 was > 100 µM (inactive) each time. In addition, the GI50 in the experiment on SK-MEL-2 and in the experiment on KM12 was > 100 µM (inactive) in each case.
`CCCCCCCCCCCCOC(=S)NC`: the GI50 in the experiment with SNB-75 is 29.9 µM (inactive); in the experiment with HOP-92 it was 15.5 µM (inactive); in the experiment on LOX IMVI, 14.1 µM (inactive); in the experiment with SR it was 14.1 µM (inactive); in the experiment on M14, 19.7 µM (inactive); in the experiment on K562, 19.6 µM (inactive). The GI50 with OVCAR-4 is 24.1 µM (inactive); with SK-OV-3, 27 µM (inactive); in the experiment on 786-0, 19 µM (inactive); in the experiment with SF-295, 25.9 µM (inactive); in the experiment with SNB-19, 33.4 µM (inactive); with SW-620 it was 18.3 µM (inactive). In addition, the GI50 was 17.8 µM in the experiment on HCT-15, 12.8 µM (inactive) with TK-10, 14.6 µM (inactive) with SK-MEL-2 and 14.3 µM (inactive) in the experiment on KM12.
As for `CC(=O)/C(=C/n1c(=S)[nH]c2ccccc21)C(=O)Nc1ccccc1C`, the GI50 in the experiment on SNB-75, with HOP-92, in the experiment with LOX IMVI, with T47D, in the experiment on MDA-MB-231 and with M14 was > 100 µM (inactive) in each case. For the same molecule, the GI50 with OVCAR-4, in the experiment with SK-OV-3, with 786-0, in the experiment with SF-295, in the experiment on SNB-19 and in the experiment with MDA-MB-435 was > 100 µM (inactive) in each case. In addition, the GI50 was > 100 µM (inactive) in the experiment with SW-620; over 100 µM in the experiment with HCT-15; > 100 µM (inactive) with TK-10; > 100 µM (inactive) in the experiment with SK-MEL-2; > 100 µM (inactive) in the experiment on KM12.
In the case of `COc1cc2c(cc1OC)C1[C@@H](c3ccccc3)OCN1CC2` (stereo partly drawn), the GI50 with SNB-75 was 60.8 µM (inactive); in the experiment on HOP-92, 83.4 µM (inactive); with LOX IMVI it was > 96.2 µM (inactive); in the experiment on SR it was > 88.7 µM (inactive); in the experiment on M14, > 100 µM (inactive); with K562, > 63.1 µM (inactive). The GI50 is > 100 µM (inactive) with OVCAR-4; > 46 µM (inactive) with SK-OV-3; > 100 µM (inactive) in the experiment on 786-0; > 100 µM (inactive) in the experiment with SF-295; > 100 µM (inactive) in the experiment with SNB-19; 56.8 µM (inactive) with SW-620. For the same molecule, the concentration for 50% growth inhibition (GI50) in the experiment on HCT-15 is over 90.6 µM; in the experiment with TK-10, > 100 µM (inactive); in the experiment on SK-MEL-2, > 100 µM (inactive); with KM12, > 100 µM (inactive).
Consider `COc1ccc(N2C(=O)C3c4[nH]c5ccccc5c4C4CCCCC4C3C2=O)cc1` (stereo not drawn), for which the GI50 in the experiment on SNB-75 is 3.5 µM (inactive); in the experiment on HOP-92, 18.2 µM (inactive); in the experiment with LOX IMVI it was 20 µM (inactive); in the experiment on SR, 11.7 µM (inactive); in the experiment on M14 it was 18 µM (inactive); in the experiment on K562, 18.2 µM (inactive). In addition, the GI50 with OVCAR-4 was 5.4 µM (inactive); with SK-OV-3 it was 19.7 µM (inactive); in the experiment with 786-0, 11.1 µM (inactive); with SF-295, 11.3 µM (inactive); with SNB-19, 50.6 µM (inactive); in the experiment with SW-620, 29.1 µM (inactive). Moreover, the GI50 in the experiment on HCT-15 is over 100 µM; in the experiment on TK-10, 21.3 µM (inactive); with SK-MEL-2, 16.6 µM (inactive); in the experiment on KM12 it was 38.5 µM (inactive).
Regarding `CC(=O)Nc1ccc(/C=c2\sc3nnc(CCC(=O)Nc4ccccc4Cl)n3c2=O)cc1`, the GI50 in the experiment on HOP-92 was 27.4 µM (inactive); with LOX IMVI, 17.2 µM (inactive); with SR it was 20.3 µM (inactive); in the experiment on M14, 16.7 µM (inactive); with K562 it was 24.2 µM (inactive); in the experiment with OVCAR-4 it was 20.6 µM (inactive). The GI50 was > 100 µM (inactive) with SK-OV-3; 21.8 µM (inactive) with 786-0; 18.1 µM (inactive) in the experiment with SF-295; 38.9 µM (inactive) with SNB-19; 27 µM (inactive) in the experiment with SW-620; 44.6 µM in the experiment on HCT-15. In addition, the GI50 in the experiment with TK-10 is 37.8 µM (inactive); in the experiment on SK-MEL-2, 31.9 µM (inactive); in the experiment with KM12 it was 20.9 µM (inactive).
Regarding `O=S(=O)(SCc1ccccc1)C(c1ccccc1)c1ccccc1`, the GI50 is 30.3 µM (inactive) with SNB-75; 5.57 µM (inactive) in the experiment on HOP-92; 30.4 µM (inactive) in the experiment on LOX IMVI; 15.2 µM (inactive) in the experiment on SR; 24 µM (inactive) with M14; 6.67 µM (inactive) in the experiment on K562. In addition, the GI50 is 48.9 µM (inactive) in the experiment with OVCAR-4; > 100 µM (inactive) with SK-OV-3; 31.6 µM (inactive) in the experiment on 786-0; 44.1 µM (inactive) in the experiment with SF-295; > 100 µM (inactive) in the experiment with SNB-19; 7.4 µM (inactive) in the experiment on SW-620. Moreover, the GI50 was 30.5 µM with HCT-15, > 100 µM (inactive) in the experiment on TK-10, 39.1 µM (inactive) in the experiment with SK-MEL-2 and 34.1 µM (inactive) in the experiment on KM12.
